From patent US20100086958A1, “NOVEL ENZYME” (priority 2008, published 2010)

How the values were obtained:
Bsp184FDH = test: Inhibition studies of Bsp184FDH-catalysed formate oxidation; type: biochemical, Burkholderia cenocepacia PC184
Method: (§1) Inhibition of formate oxidation by Bsp383FDH or Bsp184FDH was performed in the presence of the following potential inhibitors: NaN3, NaNO2, KNO3, KNO2, KCN and iodoacetamide at 5 mM and 20 mM concentrations. In a typical procedure, 10 μL of enzyme, Bsp383FDH (0.022 mg/mL) or Bsp184FDH (0.020 mg/mL) was incubated in sodium phosphate buffer (50 mM, pH 7.0) containing 100 mM of formate (sodium formate) and 5 mM and 20 mM inhibitors concentrations for 5 minutes at room temperature. Reaction of formate oxidation was then initiated by addition of NADP in 5 mM final concentration. Absorbance at 340 nm due to NADPH formation was spectrophotometrically monitored using a microtiter plate reader. Absorbance was recorded at 10 seconds intervals for 10 minutes. Initial activities were then calculated using the linear part of the initial readings using at least 20 data points and used directly as relative activity values. Control experiments were also performed in the absence of the enzyme.

Bsp383FDH = test: Inhibition studies of Bsp383FDH-catalysed formate oxidation; type: biochemical, Burkholderia sp. 383
Method: as §1

O=C[O-].[Na+] [Formate salt]
inhibition of BcenFDH1 (Bsp184FDH): does not inhibit
inhibition of BspFDH2 (Bsp383FDH): does not inhibit
